This assay has as its target T1, cAMP and cAMP-inhibited cGMP 3',5'-cyclic phosphodiesterase 10A (Rattus norvegicus, UniProt Q9QYJ6).
T1 sequence (Q9QYJ6 whole entry): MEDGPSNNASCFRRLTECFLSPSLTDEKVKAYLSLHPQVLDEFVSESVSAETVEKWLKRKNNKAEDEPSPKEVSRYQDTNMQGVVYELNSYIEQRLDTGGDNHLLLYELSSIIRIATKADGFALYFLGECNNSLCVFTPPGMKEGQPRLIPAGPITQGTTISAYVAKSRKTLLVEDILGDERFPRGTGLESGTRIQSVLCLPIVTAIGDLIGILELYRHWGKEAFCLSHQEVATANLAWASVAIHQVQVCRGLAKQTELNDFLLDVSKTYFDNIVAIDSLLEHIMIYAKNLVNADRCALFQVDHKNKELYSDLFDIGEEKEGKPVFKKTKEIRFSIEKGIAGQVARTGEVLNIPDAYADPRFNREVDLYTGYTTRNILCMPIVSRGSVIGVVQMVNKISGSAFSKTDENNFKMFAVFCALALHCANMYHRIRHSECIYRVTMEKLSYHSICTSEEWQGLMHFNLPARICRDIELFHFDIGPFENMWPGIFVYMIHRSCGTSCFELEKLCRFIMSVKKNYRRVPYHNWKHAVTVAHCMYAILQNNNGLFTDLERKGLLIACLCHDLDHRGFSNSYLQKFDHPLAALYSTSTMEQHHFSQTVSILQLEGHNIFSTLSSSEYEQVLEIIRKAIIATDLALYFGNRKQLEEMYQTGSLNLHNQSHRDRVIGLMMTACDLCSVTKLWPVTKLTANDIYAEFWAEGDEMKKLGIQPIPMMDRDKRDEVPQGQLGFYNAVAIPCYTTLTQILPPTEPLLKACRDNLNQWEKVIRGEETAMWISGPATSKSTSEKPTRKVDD
Briefly: The products of Examples 1-175 were tested in the assay described below.PDE10 activity was measured using a scintillation assay (SPA-based method) similar to that previously described by Seeger, T. F. et al., Brain Research 985 (2003) 113-126. The compounds' relative activity as PDE10 inhibitors was investigated by assaying a fixed amount of enzyme in the presence of the test compound and low substrate concentration (cAMP) such that an IC50 could be determined. […] The assay is performed in a 384-well format with 50 uL assay buffer (50 mM TRIS pH 7.5; 1.3 mM MgCl2; 0.01% Brij) containing enough PDE10.

SMILES strings stand for the structures. pIC50: −log10 of the molar value.

The term pIC50 denotes −log10 of the IC50, conventionally taken in molar units.

As for `CCc1nn(C)c2c1CN(c1ncnn3c(C)nc(-c4cccc(OC)c4)c13)CC2`, the pIC50 was 8.57.

Values taken from ChEMBL document CHEMBL3638917, “Triazine derivatives” (2015).
